Results published in US6664271B1, “Immunopotentiator agents” (Eli Lilly and Company, priority 1999, dated 2003).

Test system: chicken leukocytes
Assay: cells
Assay type: cell-based
Conditions: for minimal effective concentration: Gallus gallus, Leukocyte, read-out: MSC (Minimum Stimulatory Concentration)
Procedure: Various compounds of Formula I were evaluated for in vitro T-lymphocyte blastogenic activity with chicken leukocytes according to the steps described in the following procedure:
(a) Exsanguination step. The leukocytes were obtained from 3-6 week old Hubbard/Peterson broiler chickens. Initially, the chickens were rendered unconscious in a CO2 chamber. The chickens were then exsanguinated via cardiac puncture. In the exsanguination procedure, a syringe was connected to a needle, and the needle was inserted into the area at the base of the neck under the “V” formed by the breast and sternum. After the needle was properly inserted, continuous vacuum was applied to a syringe (connected to the needle) by pulling back on the plunger. It is important to promptly carry out this withdrawal action, because there is only a 10-15 seconds time period after the blood has starting flowing into the syringe before the blood coagulates, and becomes unusable. As soon as the syringe is full (or prior to complete filling if too much time has elapsed such that the blood begins to coagulate), the whole uncoagulated blood is transferred to a tube having the anticoagulant EDTA therein. The tube is then rotated to mix the whole blood and the EDTA. Alternatively, the whole blood can be withdrawn directly into a vacuum container already having EDTA therein, rather than into a syringe.
(b) Leukocyte isolation step. Numerous methods for isolating leukocytes from (uncoagulated) whole blood are known in the art. In a preferred method, the sterile whole blood was combined with methylcellulose (1.5:1). Any blood containing clots was discarded. The mixture was centrifuged at 30×g for ten minutes (300 rpm on Beckman GS-6R centrifuge). The top layer (leukocytes in supernatant) was decanted into a sterile 50 ml conical tube, while taking care to prevent contamination of the sample by red blood cells. The decanted layer was then centrifuged at 200×g for ten minutes (1500 rpm on the Beckman GS-6R centrifuge). The supernatant liquid was discarded, and the resulting cell “pellet” was retained.
The cells were then washed in a solution containing 10 ml PBS (phosphate buffered saline) and Gentamycin (gentamicin sulfate) at a concentration of 50 μg/ml. This solution was centrifuged at 100×g (1000 rpm on the Beckman centrifuge) for five minutes, and the supernatant liquid was discarded. The washing step (including the centrifuging at 100×g) was repeated to ensure complete removal of the methylcellulose. The use of media such as DMEM ([…]) was avoided in the washing steps, since such media may cause agglutination of the white blood cells. Finally, the cells were then suspended in an appropriate media, such as RPMI 1640 tissue cell culture medium, supplemented with phenol red, NaHCO3, and L-Glutamide. Supplemented RPMI 1640 is available from Sigma-Aldrich Chemical Co.
(c) Cell counting and cell viability step. The cells were counted and checked for viability using the Trypan Blue method of exclusion. 0.1 ml of the cell suspension was placed in a 4-5 ml small culture tube along with 0.7 ml HBSS (Hank's Buffered Saline Solution), available from Sigma-Aldrich, and 0.2 ml of a 0.4% solution of aqueous Trypan Blue stain, available from GIBCO BRL, of Grand Island, N.Y. The components were mixed thoroughly but gently, and allowed to sit for 5 minutes (no longer than 15 minutes). The components should not be exposed to the stain for extended periods of time, because such extended exposure may permit viable cells, as well as non-viable cells, to take up dye.
A cover slip was placed on a Bright Line hemacytometer, available from Howser Scientific, and 10 μl of the mixture from the tube was transferred to each chamber. Non-viable cells appear blue under a microscope. The viable cells in one of the 16-square corners of the hemacytometer were then counted. […]

[1] = chicken leukocytes, read at 72 hours
[2] = Hubbard/Peterson broiler, chicken, 72 h

Molecule | minimal effective concentration [1] | MTC (Maximum Tolerable Concentration prior to causing cytotoxicity) [2] | MSC (Minimum Stimulatory Concentration) [1] | MTC (Maximum Tolerable Concentration prior to causing cytotoxicity) [1]
CCCCOC(=O)C1CCCN(C(=O)c2ccccc2)C1 (centres unmarked) [Example 13, n-Butyl 1-Benzoyl-3-piperidinecarboxylate] | 0.01 µg/mL | 1 µg/mL | – | –
CCOC(=O)C1CCCN(C(=O)CCc2cccs2)C1 (centres unmarked) [Example 23, Ethyl 1-(3-(2-Thienyl)propionyl)3-piperidinecarboxylate] | 0.1 µg/mL | 1 µg/mL | – | –
CCOC(=O)C1CCCN(C(=O)CCc2ccccc2)C1 (centres unmarked) [Example 43, Ethyl 1-(1-Phenylpropionyl)-3-piperidinecarboxylate] | – | – | 1 µg/mL | –
CCOC(=O)[C@H]1CCCN(CCCc2cccs2)C1 [Example 54, (S)-Ethyl 1-(2-Thienylpropyl)-3-piperidinecarboxylate] | 1 µg/mL | 10 µg/mL | – | –
CCOC(=O)C1(C)CCCN(C(=O)c2ccccc2)C1 (centres unmarked) [Example 39, Ethyl 1-Benzoyl-3-methyl-3-piperidinecarboxylate] | 1 µg/mL | 1 µg/mL | – | –
CCC(=O)OC1CCCN(C(=O)Cc2cccs2)C1 (centres unmarked) [Example 46, 1-(2-Thiopheneacetyl)-3-(O-propionyl)piperidine] | – | – | 1 µg/mL | 10 µg/mL
CCOC(=O)C1CCCN(C(=O)c2ccc(-c3ccccc3)cc2)C1 (centres unmarked) [Example 36, Ethyl 1-(4-Phenylbenzoyl)-3-piperidinecarboxylate] | 0.1 µg/mL | 10 µg/mL | – | –
O=C[C@H]1CCCN(C(=O)Cc2cccs2)C1 [Example 63, (S)-1-(2-Thiopheneacetyl)-3-piperidinecarboxaldehyde] | 1 µg/mL | 10 µg/mL | – | –
CS(=O)(=O)OC1CCCN(C(=O)Cc2cccs2)C1 (centres unmarked) [Example 44, 1-(2-Thiopheneacetyl)-3-(O-methanesulfonyl)piperidine] | – | – | 1 µg/mL | 10 µg/mL
CCOC(=O)CC1CCCN(C(=O)Cc2cccs2)C1 (centres unmarked) [Example 27, Ethyl 1-(2-Thiopheneacetyl)-3-piperidinylacetate] | 1 µg/mL | 1 µg/mL | – | –
CCOC(=O)C1CN(C(=O)Cc2cccs2)CCC1C (centres unmarked) [Example 62, Ethyl 1-(2-Thiopheneacetyl)4-methyl-3-piperidinecarboxylate] | 1 µg/mL | 10 µg/mL | – | –
CCOC(=O)C1CN(C(=O)OCc2ccccc2)CCC1=O (centres unmarked) [Example 10, Ethyl 1-Benzyloxycarbonyl-4-oxo-3-piperidinecarboxylate] | 0.01 µg/mL | 0.1 µg/mL | – | –
COC(=O)[C@H]1CCCN(C(=O)c2ccccc2)C1 [Example 52, (S)-Methyl 1-Benzoyl-3-piperidinecarboxylate] | 0.1 µg/mL | 10 µg/mL | – | –
O=C(Cc1cccs1)N1CCCC(O)C1 (centres unmarked) [Example 41, 1-(2-Thiopheneacetyl)-3-hydroxypiperidine] | 10 µg/mL | 100 µg/mL | – | –
CCCCCCCCNC(=O)C1CCCN(C(=O)c2ccccc2)C1 (centres unmarked) [Example 18, N-(n-Octyl) 1-Benzoyl-3-piperidinecarboxamide] | 0.01 µg/mL | 0.1 µg/mL | – | –
N#C[C@H]1CCCN(C(=O)Cc2cccs2)C1 [Example 64, (S)-1-(2-Thiopheneacetyl)-3-piperidinonitrile] | 1 µg/mL | 10 µg/mL | – | –
CCOC(=O)C1CCCN(C(=O)c2cccs2)C1 (centres unmarked) [Example 8, Ethyl (2-Thiophenecarbonyl)-3-piperidinecarboxylate] | – | – | 0.1 µg/mL | –

Molecule | minimal effective concentration [1] | MTC (Maximum Tolerable Concentration prior to causing cytotoxicity) [2] | MSC (Minimum Stimulatory Concentration) [1] | MTC (Maximum Tolerable Concentration prior to causing cytotoxicity) [1]
CCOC(=O)[C@H]1CCCN(C(=O)NCc2ccccc2)C1 [Example 48, (S)-Ethyl 1-(N-Benzylurea)-3-piperidinecarboxylate] | – | – | 10 µg/mL | –
CCOC(=O)C1CCC(C)N(C(=O)Cc2cccs2)C1 (centres unmarked) [Example 33, Ethyl 1-(2-Thiopheneacetyl)-6-methyl-3-piperidinecarboxylate] | 0.1 µg/mL | 10 µg/mL | – | –
CCNC(=O)C1CCCN(C(=O)c2ccccc2)C1 (centres unmarked) [Example 17, N-Ethyl 1-Benzoyl-3-piperidinecarboxamide] | 1 µg/mL | 10 µg/mL | – | –
CCOC(=O)C1CCCN(C(=O)c2ccccc2)C1 (centres unmarked) [Example 1, Ethyl 1-Benzoyl-3-piperidinecarboxylate] | 0.1 µg/mL | 10 µg/mL | – | –
CCOC(=O)C1CN(C(=O)c2ccccc2)CCC1=O (centres unmarked) [Example 3, Ethyl 1-Benzoyl-4-oxo-3-piperidinecarboxylate] | 0.01 µg/mL | 1 µg/mL | – | –
CCOC(=O)C1CN(C(=O)c2ccc(F)cc2)CCC1=O (centres unmarked) [Example 12, Ethyl 1-(4-Fluorobenzoyl)-4-oxo-3-piperidinecarboxylate] | 0.01 µg/mL | 0.1 µg/mL | – | –
CCOC(=O)C1CC(C)CN(C(=O)Cc2cccs2)C1 (centres unmarked) [Example 57, Ethyl 1-(2-Thiopheneacetyl)-5-methyl-3-piperidinecarboxylate] | 10 µg/mL | 10 µg/mL | – | –
CCOC(=O)C1CCCN(C(=O)OCc2ccccc2)C1 (centres unmarked) [Example 4, Ethyl 1-Benzyloxycarbonyl-3-piperidinecarboxylate] | 1 µg/mL | 10 µg/mL | – | –
CN(C)CCNC(=O)C1CCCN(C(=O)Cc2cccs2)C1 (centres unmarked) [Example 25, 2-Dimethylaminoethyl 1-(2-thiopheneacetyl)-3-piperidinecarboxamide] | 0.1 µg/mL | 1 µg/mL | – | –
N.O=C(O)[C@H]1CCCN(C(=O)Cc2cccs2)C1 [Example 42, (S)-1-(2-Thiopheneacetyl)-3-piperidinecarboxylic Acid Ammonium Salt] | 1 µg/mL | – | – | 10 µg/mL
(S)-Ethyl 1-(2-Thiazyl)-3-piperidinecarboxylate 1-methiodide [Example 73] | – | – | 1 µg/mL | –
CCOC(=O)C1CCCN(C(=O)c2ccc(F)cc2)C1 (centres unmarked) [Example 7, Ethyl 1-(4-Fluorobenzoyl)-3-piperidinecarboxylate] | 0.01 µg/mL | 10 µg/mL | – | –
CCNC(=O)C1CCCN(C(=O)Cc2cccs2)C1 (centres unmarked) [Example 20, N-Ethyl 1-(2-Thiopheneacetyl)-3-piperidinecarboxamide] | 0.1 µg/mL | 1 µg/mL | – | –
O=C(O)[C@H]1CCCN(C(=O)c2ccccc2)C1 [Example 50, (S)-1-Benzoyl-3-piperidinecarboxylic Acid] | 1 µg/mL | 10 µg/mL | – | –
CCOC(=O)[C@H]1CCCN(C(=O)NC)C1 [Example 49, (S)-Ethyl 1-(N-Methylurea)-3-piperidinecarboxylate] | – | – | 1 µg/mL | 10 µg/mL
CCOC(=O)C1CCCN(C(=O)Cc2ccccc2)C1 (centres unmarked) [Example 6, Ethyl 1-Phenylacetyl-3-piperidinecarboxylate] | – | – | 0.1 µg/mL | 1 µg/mL
